Experiment [1] concerns pAKT (p-Akt 1/2/3 (Ser473)) in MCF-7 cells. Nature of the experiment: AlphaLISA Ultra pAKT assay. The class given is cell-based. The settings on record: Homo sapiens, MCF7, 2 hours compound incubation. The method, boiled down:
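MCF-7 cells seeded 20-24 h, medium refreshed for 2 h, then treated with compounds for 2 h at 0.5% final DMSO. Lysates frozen at −80 °C, then pAKT detected by AlphaLISA with acceptor and donor beads, 2 h each.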
On the technique in general: Alpha assays give light when donor and acceptor beads are brought close together.

For experiment [2], the system named is pS6K1 (p-p70 S6 Kinase (Thr389)) in MCF-7 cells. Description: AlphaLISA Ultra pS6K1 assay. The settings on record: Homo sapiens, MCF7, 2 h, 2 hours compound incubation. The class given is cell-based. The method, boiled down: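 MCF-7 cells seeded 20–24 h, medium refreshed 2 h, then treated 2 h with compound (0.5% DMSO final). Lysates probed for Thr389-phosphorylated p70 S6K by AlphaLISA Ultra, 2 h acceptor then 2 h donor bead incubation, read on a multimode reader.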

Results on 12 compounds are retold here after patent US10844013B2, “Phenyl amino piperidine mTORC inhibitors and uses thereof” (Navitor Pharmaceuticals, Inc., priority 2016, dated 2020).

Counter-ions that a name gives are not always drawn. Some results are limits rather than exact numbers.

Broadly, the IC50 is the concentration needed to halve the response being measured.

Take `Cc1cc(C)c(C(=O)N2CCN(c3ccccn3)C(C)(C)C2)cc1NC1CCN(c2ccccc2C#N)CC1` [I-118]: the IC50 is above 10000 nM in experiment [1] and 1000 to 3000 nM in experiment [2].

Regarding `Cc1cc(C)c(C(=O)N2CCN(c3ccccc3)C(C)(C)C2)cc1NC1CCN(c2ccccc2C#N)CC1` [I-119, 2-(4-(5-(3,3-Dimethyl-4-phenylpiperazine-1-carbonyl)-2,4-dimethylphenylamino)piperidin-1-yl)benzonitrile], the IC50 in experiment [1] and in experiment [2] was above 10000 nM throughout.

For `Cc1ccc(C(=O)N2CCN(c3ncccc3S(N)(=O)=O)CC2)c(C)c1NC1CCN(c2ccccc2C#N)CC1` [I-120, 2-(4-(3-(1-(2-cyanophenyl)piperidin-4-ylamino)-2,4-dimethylbenzoyl)piperazin-1-yl)pyridine-3-sulfonamide], the IC50 in experiment [1] is above 10000 nM; in experiment [2], 10 to 1000 nM.

As for `Cc1cc(C)c(C(=O)N2CCN(c3ncccc3S(N)(=O)=O)[C@H](C)C2)cc1NC1CCN(c2ccccc2C#N)CC1` [I-122, (R)-2-(4-(5-(1-(2-Cyanophenyl)piperidin-4-ylamino)-2,4-dimethylbenzoyl)-2-methylpiperazin-1-yl)pyridine-3-sulfonamide], the figures for the IC50 in experiment [1] and in experiment [2] were above 10000 nM and 10 to 1000 nM, respectively.

As for `CNC(=O)c1cccnc1N1CCN(C(=O)c2cc(NC3CCN(c4ccccc4C#N)CC3)c(C)cc2C)C[C@H]1C` [I-123, (R)-2-(4-(5-(1-(2-Cyanophenyl)piperidin-4-ylamino)-2,4-dimethylbenzoyl)-2-methylpiperazin-1-yl)-N-methylnicotinamide], the IC50 in experiment [1] is above 10000 nM; in experiment [2], 1000 to 3000 nM.

`Cc1ccc(C(=O)N2CCN(c3ccccc3S(N)(=O)=O)CC2)c(C)c1NC1CCN(c2ccccc2C#N)CC1` [I-124, 2-[4-[3-[[1-(2-cyanophenyl)-4-piperidyl]amino]-2,4-dimethyl-benzoyl]piperazin-1-yl]benzenesulfonamide]: the IC50 in experiment [1] was above 10000 nM; in experiment [2] it was 10 to 1000 nM.

Consider `N#Cc1ccccc1N1CCC(Nc2cc(C(=O)N3CCN(c4ccccc4S(N)(=O)=O)CC3)c(Cl)cc2Cl)CC1` [I-125, 2-(4-(2,4-dichloro-5-(1-(2-cyanophenyl)piperidin-4-ylamino)benzoyl)piperazin-1-yl)benzenesulfonamide], for which the concentration for half-maximal inhibition (IC50) in experiment [1] and in experiment [2] was above 10000 nM throughout.

Turning to `COc1cc(C)c(C(=O)N2CCN(c3ccccc3S(N)(=O)=O)CC2)cc1NC1CCN(c2ccccc2C#N)CC1` [I-127, 2-(4-(5-(1-(2-Cyanophenyl)piperidin-4-ylamino)-4-methoxy-2-methylbenzoyl)piperazin-1-yl)benzenesulfonamide], the IC50 in experiment [1] is above 10000 nM; in experiment [2], 3000 to 5000 nM.

Turning to `Cc1cccc(N2CCC(Nc3cc(C(=O)N4CCN(c5ccccc5S(N)(=O)=O)CC4)c(C)cc3C)CC2)c1` [I-129, 2-(4-(2,4-Dimethyl-5-(1-m-tolylpiperidin-4-ylamino)benzoyl)piperazin-1-yl)benzenesulfonamide], the half-inhibitory concentration (IC50) in experiment [1] is above 10000 nM; in experiment [2], 1000 to 3000 nM.

Consider `Cc1cc(C)c(C(=O)N2CCN(c3ccccc3S(N)(=O)=O)CC2)cc1NC1CCN(c2ccccc2C#N)C1` (stereo not drawn) [I-131, 2-(4-(5-(1-(2-cyanophenyl)pyrrolidin-3-ylamino)-2,4-dimethylbenzoyl)piperazin-1-yl)benzenesulfonamide], for which the IC50 in experiment [1] and in experiment [2] was above 10000 nM in each case.

`Cc1cc(C)c(C(=O)N2CCN(c3ccccc3S(N)(=O)=O)CC2)cc1NC1C2CN(c3ccccc3C#N)CC21` (stereo not drawn) [I-132, 2-(4-(5-(3-(2-Cyanophenyl)-3-azabicyclo[3.1.0]hexan-6-ylamino)-2,4-dimethylbenzoyl)piperazin-1-yl)benzenesulfonamide]: the 50% inhibitory concentration (IC50) was above 10000 nM in experiment [1] and 1000 to 3000 nM in experiment [2].

In the case of `Cc1cc(C)c(C(=O)N2CCN(c3ccccc3)C(CN)C2)c(C)c1NC1CCN(c2ccccc2C#N)CC1` (stereo not drawn) [I-135, 2-[4-({3-[3-(Aminomethyl)-4-phenylpiperazine-1-carbonyl]-2,4,6-trimethylphenyl}amino)piperidin-1-yl]benzonitrile; bis(formic acid) salt], the IC50 in experiment [1] was above 10000 nM; in experiment [2] it was 10 to 1000 nM.
